Legend:
[1] = target: T1, human GLP-1 receptor (Homo sapiens, UniProt P43220); assay: cAMP activity test (cAMP dynamic HTRF kit) in CHO-K1/GLP-1 receptor-expressing cells; assay type: cell-based; details: cAMP activity, CHO-K1/GLP-1 receptor-expressing cells; read-out: EC50
T1 construct: host or cells: CHO-K1
Method: The next day, the medium was removed, and a 50 uL of HBSS medium containing 0.1% BSA, 0.5 mM IBMX, and 5 mM HEPES was added to each well. […] The cAMP activity was measured according to the manufacturer's instructions using the cAMP dynamic HTRF kit (Cisbio, 62AM4PEC). After incubation, the medium was discarded, and the cells were lysed. cAMP-d2 and anti-cAMP cryptate conjugate were added thereto and reacted for 3 hours. […] Intracellular cAMP competes with cAMP-d2 for anti-cAMP cryptate, and the measured signal of fluorescence resonance energy transfer (FRET) is inversely proportional to intracellular cAMP.

[2] = target: T2, hERG (Homo sapiens, UniProt Q12809); assay: hERG inhibition test (Predictor hERG Fluorescence Polarization assay kit); assay type: binding; details: probe kit Tracer (fluorescent hERG ligand), hERG % inhibition at 10 uM, relative to E-4031 and solvent control
T2 construct: purchased Invitrogen PV5365
Method: To measure the hERG (Human ether-a-go-go-related gene) channel inhibition rate of the compound according to the present invention, the following test was performed using a Predictor hERG Fluorescence Polarization assay kit (Invitrogen, PV5365).
Specifically, a test substance was dissolved in DMSO to prepare a 50 mM solution. A 4 mM solution was prepared by diluting the 50 mM solution with DMSO in a U bottom 96-well plate (SPL, 34096), and was then diluted 100-fold with a test buffer to prepare a 40 uM (4×) solution. The positive control E-4031 (3 mM) provided in the kit was diluted 25-fold with a test buffer to prepare a 120 uM solution) 5 uL of the diluted test substance solution was dispensed into a 384-well assay plate (corning, 3677). hERG Membrane (2×) and Tracer (4×) provided in the kit were respectively added at 10 uL and 5 uL, and then subjected to the reaction at room temperature for 2.5 hours. After completion of the reaction, fluorescence polarization (mP) was measured with a Multimode Plate Reader (Perkin-Elmer, Envision) (excitation wavelength of 531 nm, and emission wavelength 579 nm). The value of the percent inhibitory activity (% inhibition) at 10 uM of each test substance was calculated by the following equation, and the results are shown in Table 2: (% inhibition)=100−{(mP of the compound according to the present invention−E-4031 mP)/(mP of the solvent control−E-4031 mP)}×100

T2 sequence (Q12809 whole entry): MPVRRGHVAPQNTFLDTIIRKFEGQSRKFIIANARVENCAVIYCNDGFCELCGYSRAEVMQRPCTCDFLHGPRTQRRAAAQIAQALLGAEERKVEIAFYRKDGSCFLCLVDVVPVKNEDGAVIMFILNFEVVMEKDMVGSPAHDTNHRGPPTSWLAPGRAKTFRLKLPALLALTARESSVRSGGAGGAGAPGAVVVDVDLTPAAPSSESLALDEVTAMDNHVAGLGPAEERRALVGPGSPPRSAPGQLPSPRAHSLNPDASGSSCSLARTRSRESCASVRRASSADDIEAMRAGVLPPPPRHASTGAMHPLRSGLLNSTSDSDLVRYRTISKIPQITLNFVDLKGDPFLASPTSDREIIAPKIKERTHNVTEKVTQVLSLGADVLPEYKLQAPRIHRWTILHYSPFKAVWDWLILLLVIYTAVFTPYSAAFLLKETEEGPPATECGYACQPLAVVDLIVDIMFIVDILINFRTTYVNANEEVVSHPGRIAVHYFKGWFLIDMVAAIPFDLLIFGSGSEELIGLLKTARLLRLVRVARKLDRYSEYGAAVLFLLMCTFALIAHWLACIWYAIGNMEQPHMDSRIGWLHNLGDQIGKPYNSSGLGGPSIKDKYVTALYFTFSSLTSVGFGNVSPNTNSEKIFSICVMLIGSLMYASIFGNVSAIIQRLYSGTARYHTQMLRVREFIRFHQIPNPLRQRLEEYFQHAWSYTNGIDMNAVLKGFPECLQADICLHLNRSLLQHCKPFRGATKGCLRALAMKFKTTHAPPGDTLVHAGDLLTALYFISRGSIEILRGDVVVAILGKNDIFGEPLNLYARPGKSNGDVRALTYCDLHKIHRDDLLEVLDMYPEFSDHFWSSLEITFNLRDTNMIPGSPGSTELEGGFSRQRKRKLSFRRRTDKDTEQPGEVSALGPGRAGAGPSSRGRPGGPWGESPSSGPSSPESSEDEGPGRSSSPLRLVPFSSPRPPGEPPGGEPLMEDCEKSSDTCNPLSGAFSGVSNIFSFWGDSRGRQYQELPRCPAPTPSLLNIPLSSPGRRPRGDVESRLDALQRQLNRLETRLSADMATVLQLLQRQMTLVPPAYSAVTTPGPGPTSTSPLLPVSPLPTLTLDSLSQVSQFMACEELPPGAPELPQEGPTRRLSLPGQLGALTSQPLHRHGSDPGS
T1 sequence (P43220 24-463): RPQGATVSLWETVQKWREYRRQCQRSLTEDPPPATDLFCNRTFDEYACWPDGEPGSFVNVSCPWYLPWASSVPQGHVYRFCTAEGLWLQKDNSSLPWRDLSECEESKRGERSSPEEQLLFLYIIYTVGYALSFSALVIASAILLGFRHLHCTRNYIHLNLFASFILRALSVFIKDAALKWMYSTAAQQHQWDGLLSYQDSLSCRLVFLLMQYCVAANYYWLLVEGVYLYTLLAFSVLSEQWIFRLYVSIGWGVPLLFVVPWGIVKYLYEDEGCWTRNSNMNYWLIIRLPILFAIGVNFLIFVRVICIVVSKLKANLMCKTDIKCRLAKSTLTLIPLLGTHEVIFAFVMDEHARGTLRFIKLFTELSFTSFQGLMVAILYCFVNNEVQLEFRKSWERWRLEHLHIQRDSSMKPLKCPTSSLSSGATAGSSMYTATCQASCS

Row | Compound | EC50 [1] [nM] | inhibition at 2.5 h, 10 µM [2] [%]
1 | O=C(O)c1ccc2nc(Cc3ccc(-c4cccc(OCc5ccc(Cl)cc5F)n4)cc3)n(Cc3ccco3)c2c1 [Example 12, 2-(4-(6-(4-chloro-2-fluorobenzyloxy)pyridin-2-yl)benzyl)-1-(furan-2-ylmethyl)-1H-benzo[d]imidazole-6-carboxylic acid] | 85 | -2.74
2 | O=C(O)c1ccc2nc(Cn3ccc(-c4cccc(OCc5ccc(Cl)cc5F)n4)cc3=O)n(C[C@@H]3CCO3)c2c1 [Example 110, (S)-2-((6-((4-chloro-2-fluorobenzyl)oxy)-2′-oxo-[2,4′-bipyridin]-1′(2′H)-yl)methyl)-1-(oxetan-2-ylmethyl)-1H-benzo[d]imidazole-6-carboxylic acid] | 16 | 7.61
3 | O=C(O)c1ccc2nc(Cc3ccc(-c4cccc(OCc5ccc(C(F)(F)F)cc5)n4)c(F)c3)n(C[C@@H]3CCO3)c2c1 [Example 121, (S)-2-(3-fluoro-4-(6-((4-(trifluoromethyl)benzyl)oxy)pyridin-2-yl)benzyl)-1-(oxetan-2-ylmethyl)-1H-benzo[d]imidazole-6-carboxylic acid] | 15 | -10.7
4 | COCCn1c(Cn2ccc(-c3cccc(OCc4ccc(C#N)cc4F)c3)cc2=O)nc2ccc(C(=O)O)cc21 [Example 104, 2-((4-(3-(4-cyano-2-fluorobenzyloxy)phenyl)-2-oxopyridin-1(2H)-yl)methyl)-1-(2-methoxyethyl)-1H-benzo[d]imidazole-6-carboxylic acid] | 240 | 8.69
5 | COCCn1c(Cc2ccc(-c3cccc(OCc4ccc(Cl)cc4F)c3)c(F)c2)nc2ccc(C(=O)O)cc21 [Example 39, 2-((3′-(4-chloro-2-fluorobenzyloxy)-2-fluorobiphenyl-4-yl)methyl)-1-(2-methoxyethyl)-1H-benzo[d]imidazole-6-carboxylic acid] | 250 | -12.8
6 | COc1cccc(COc2cccc(-c3ccc(Cc4nc5ccc(C(=O)O)cc5n4Cc4ccco4)nc3)c2)c1 [Example 23, 1-(furan-2-ylmethyl)-2-((5-(3-(3-methoxybenzyloxy)phenyl)pyridin-2-yl)methyl)-1H-benzo[d]imidazole-6-carboxylic acid] | 610 | -6.89
7 | N#Cc1ccc(COc2cccc(-c3cc(F)c(Cc4nc5ccc(C(=O)O)cc5n4C[C@@H]4CCCO4)cc3F)n2)c(F)c1 [Example 120, (S)-2-(4-(6-((4-cyano-2-fluorobenzyl)oxy)pyridin-2-yl)-2,5-difluorobenzyl)-1-((tetrahydrofuran-2-yl)methyl)-1H-benzo[d]imidazole-6-carboxylic acid] | < 3.2 | -3.82
8 | COc1cc(-c2cccc(OCc3ccc(C#N)cc3F)n2)ccc1Cc1nc2ccc(C(=O)O)cc2n1CC1CCCO1 (centres unmarked) [Example 64, 2-(4-(6-(4-cyano-2-fluorobenzyloxy)pyridin-2-yl)-2-methoxybenzyl)-1-((tetrahydrofuran-2-yl)methyl)-1H-benzo[d]imidazole-6-carboxylic acid] | 110 | -9.05
9 | O=C(O)c1ccc2nc(Cc3ccc(-c4ccc(F)c(OCc5ccc(Cl)cc5F)c4)cc3F)n(CC3CCCO3)c2c1 (centres unmarked) [Example 95, 2-((3′-(4-chloro-2-fluorobenzyloxy)-3,4′-difluorobiphenyl-4-yl)methyl)-1-((tetrahydrofuran-2-yl)methyl)-1H-benzo[d]imidazole-6-carboxylic acid] | 100 | -38.2
10 | O=C(O)c1ccc2nc(Cc3ccc(-c4cccc(OCc5ccc(Cl)cc5F)n4)cc3)n(Cc3cccnc3)c2c1 [Example 1, 2-(4-(6-(4-chloro-2-fluorobenzyloxy)pyridin-2-yl)benzyl)-1-(pyridin-3-ylmethyl)-1H-benzo[d]imidazole-6-carboxylic acid] | 10 | 1.26
11 | O=C(O)c1ccc2nc(Cc3ccc(-c4cccc(OCc5ccc(Br)cc5F)n4)cc3F)n(CC3CCCO3)c2c1 (centres unmarked) [Example 89, 2-(4-(6-(4-bromo-2-fluorobenzyloxy)pyridin-2-yl)-2-fluorobenzyl)-1-((tetrahydrofuran-2-yl)methyl)-1H-benzo[d]imidazole-6-carboxylic acid] | 11 | 22.1
12 | COc1cc(-c2cccc(OCc3ccc(Cl)cc3F)n2)ccc1Cc1nc2ccc(C(=O)O)cc2n1CC1CCCO1 (centres unmarked) [Example 63, 2-(4-(6-(4-chloro-2-fluorobenzyloxy)pyridin-2-yl)-2-methoxybenzyl)-1-((tetrahydrofuran-2-yl)methyl)-1H-benzo[d]imidazole-6-carboxylic acid] | 160 | -19.6
13 | O=C(O)c1ccc2nc(Cc3ccc(-c4cccc(OCc5ccc(Cl)cc5F)n4)c(F)c3)n(CCF)c2c1 [Example 55, 2-(4-(6-(4-chloro-2-fluorobenzyloxy)pyridin-2-yl)-3-fluorobenzyl)-1-(2-fluoroethyl)-1H-benzo[d]imidazole-6-carboxylic acid] | 210 | 35.4
14 | N#Cc1ccc(COc2cccc(-c3ccc(Cc4nc5ccc(C(=O)O)cc5n4CC4CCCO4)cc3F)c2)c(F)c1 (centres unmarked) [Example 9, 2-((3′-(4-cyano-2-fluorobenzyloxy)-2-fluorobiphenyl-4-yl)methyl)-1-((tetrahydrofuran-2-yl)methyl)-1H-benzo[d]imidazole-6-carboxylic acid] | 75 | 0.48
15 | O=C(O)c1ccc2nc(Cc3ccc(-c4cccc(OCc5ccc(Cl)cc5F)n4)c(F)c3)n(C[C@@H]3CCCO3)c2c1 [Example 60, (S)-2-(4-(6-((4-chloro-2-fluorobenzyl)oxy)pyridin-2-yl)-3-fluorobenzyl)-1-((tetrahydrofuran-2-yl)methyl)-1H-benzo[d]imidazole-6-carboxylic acid] | < 3.2 | -5.42
16 | N#Cc1ccc(COc2cc(-c3ccc(Cc4nc5ccc(C(=O)O)cc5n4CC4CCCO4)cc3F)ccc2F)c(F)c1 (centres unmarked) [Example 93, 2-((3′-(4-cyano-2-fluorobenzyloxy)-2,4′-difluorobiphenyl-4-yl)methyl)-1-((tetrahydrofuran-2-yl)methyl)-1H-benzo[d]imidazole-6-carboxylic acid] | 1100 | 8.9
17 | COCCn1c(Cc2ccc(-c3cccc(OCc4ccc(C#N)cc4F)c3)cc2)nc2ccc(C(=O)O)cc21 [Example 21, 2-((3′-(4-cyano-2-fluorobenzyloxy)biphenyl-4-yl)methyl)-1-(2-methoxyethyl)-1H-benzo[d]imidazole-6-carboxylic acid] | 420 | -9.94
18 | O=C(O)c1ccc2nc(Cc3ccc(-c4cccc(OCc5ccc(F)c(F)c5)n4)c(F)c3)n(CC3CCCO3)c2c1 (centres unmarked) [Example 98, 2-(4-(6-(3,4-difluorobenzyloxy)pyridin-2-yl)-3-fluorobenzyl)-1-((tetrahydrofuran-2-yl)methyl)-1H-benzo[d]imidazole-6-carboxylic acid] | 61 | -2.76
19 | O=C(O)c1ccc2nc(Cc3ccc(-c4cccc(OCc5ccc(Cl)cc5F)c4)c(F)c3)n(C[C@H]3CCCO3)c2c1 [Example 42, (R)-2-((3′-(4-chloro-2-fluorobenzyloxy)-2-fluorobiphenyl-4-yl)methyl)-1-((tetrahydrofuran-2-yl)methyl)-1H-benzo[d]imidazole-6-carboxylic acid] | 250 | -23.6
20 | O=C(O)c1ccc2nc(Cc3ccc(-c4cccc(COc5ccc(Cl)cc5F)n4)cc3F)n(C[C@H]3CCCO3)c2c1 [Example 45, (R)-2-(4-(6-((4-chloro-2-fluorophenoxy)methyl)pyridin-2-yl)-2-fluorobenzyl)-1-((tetrahydrofuran-2-yl)methyl)-1H-benzo[d]imidazole-6-carboxylic acid] | 3700 | 27.7
21 | O=C(O)c1ccc2nc(Cc3ccc(-c4cccc(OCc5ccncc5)n4)c(F)c3)n(C[C@@H]3CCO3)c2c1 [Example 128, (S)-2-(3-fluoro-4-(6-(pyridin-4-ylmethoxy)pyridin-2-yl)benzyl)-1-(oxetan-2-ylmethyl)-1H-benzo[d]imidazole-6-carboxylic acid] | 260 | -6.1
22 | O=C(O)c1ccc2nc(Cc3ccc(-c4cccc(OCc5c(F)cccc5Cl)n4)c(F)c3)n(CC3CCCO3)c2c1 (centres unmarked) [Example 101, 2-(4-(6-(2-chloro-6-fluorobenzyloxy)pyridin-2-yl)-3-fluorobenzyl)-1-((tetrahydrofuran-2-yl)methyl)-1H-benzo[d]imidazole-6-carboxylic acid] | 320 | -2.37

— patent US12421205B2, “GLP-1 receptor agonist” (HYUNDAI PHARM CO., LTD., priority 2019, dated 2025)
